ChEMBL document CHEMBL3734705, “Synthesis and in vitro cytotoxicity of novel C-12 substituted-14-deoxy-andrographolide derivatives as potent anti-cancer agents” (2015)
The source made the active and inactive calls. No cut-off for these calls is given here.

Columns and labels:
[1] = Cytotoxicity against human RPMI8226 cells assessed as growth level at 10 uM after 48 hrs by SRB assay; assay type: functional, RPMI-8226
[2] = test system: EKVX; assay: Cytotoxicity against human EKVX cells assessed as growth level at 10 uM after 48 hrs by SRB assay; assay type: functional
[3] = Cytotoxicity against human HOP62 cells assessed as growth level at 10 uM after 48 hrs by SRB assay; assay type: functional, HOP-62
[4] = test system: NCI-H522; assay: Cytotoxicity against human NCI-H522 cells assessed as growth level at 10 uM after 48 hrs by SRB assay; assay type: functional
[5] = Cytotoxicity against human COLO205 cells assessed as growth level at 10 uM after 48 hrs by SRB assay; assay type: functional, COLO 205
[6] = test system: HT-29; assay: Cytotoxicity against human HT-29 cells assessed as growth level at 10 uM after 48 hrs by SRB assay; assay type: functional
[7] = Cytotoxicity against human SW620 cells assessed as growth level at 10 uM after 48 hrs by SRB assay; assay type: functional, SW-620
[8] = Cytotoxicity against human SF268 cells assessed as growth level at 10 uM after 48 hrs by SRB assay; assay type: functional, SF-268
[9] = Cytotoxicity against human SF539 cells assessed as growth level at 10 uM after 48 hrs by SRB assay; assay type: functional, SF-539
[10] = Cytotoxicity against human LOXIMVI cells assessed as growth level at 10 uM after 48 hrs by SRB assay; assay type: functional, LOX IMVI
[11] = test system: M14; assay: Cytotoxicity against human M14 cells assessed as growth level at 10 uM after 48 hrs by SRB assay; assay type: functional
[12] = test system: MDA-MB-435; assay: Cytotoxicity against human MDA-MB-435 cells assessed as growth level at 10 uM after 48 hrs by SRB assay; assay type: functional
[13] = Cytotoxicity against human UACC257 cells assessed as growth level at 10 uM after 48 hrs by SRB assay; assay type: functional, UACC-257
[14] = Cytotoxicity against human IGROV1 cells assessed as growth level at 10 uM after 48 hrs by SRB assay; assay type: functional, IGROV-1
[15] = Cytotoxicity against human OVCAR8 cells assessed as growth level at 10 uM after 48 hrs by SRB assay; assay type: functional, OVCAR-8
[16] = Cytotoxicity against human SKOV3 cells assessed as growth level at 10 uM after 48 hrs by SRB assay; assay type: functional, SK-OV-3
[17] = test system: 786-0; assay: Cytotoxicity against human 786-0 cells assessed as growth level at 10 uM after 48 hrs by SRB assay; assay type: functional
[18] = test system: A498; assay: Cytotoxicity against human A498 cells assessed as growth level at 10 uM after 48 hrs by SRB assay; assay type: functional
[19] = Cytotoxicity against human TK10 cells assessed as growth level at 10 uM after 48 hrs by SRB assay; assay type: functional, TK-10
[20] = Cytotoxicity against human Hs578T cells assessed as growth level at 10 uM after 48 hrs by SRB assay; assay type: functional, Hs-578T
[21] = test system: MDA-MB-468; assay: Cytotoxicity against human MDA-MB-468 cells assessed as growth level at 10 uM after 48 hrs by SRB assay; assay type: functional
[22] = Cytotoxicity against human HL-60(TB) cells assessed as growth inhibition at 10 uM after 48 hrs by SRB assay; assay type: functional; details: HL-60, 48 h, read-out: GI
[23] = test system: A549; assay: Cytotoxicity against human A549 cells assessed as growth inhibition at 10 uM after 48 hrs by SRB assay; assay type: functional; details: A549, 48 h, read-out: GI
[24] = Cytotoxicity against human HOP62 cells assessed as growth inhibition at 10 uM after 48 hrs by SRB assay; assay type: functional; details: HOP-62, 48 h, read-out: GI
[25] = test system: NCI-H226; assay: Cytotoxicity against human NCI-H226 cells assessed as growth inhibition at 10 uM after 48 hrs by SRB assay; assay type: functional; details: NCI-H226, 48 h, read-out: GI
[26] = test system: NCI-H322M; assay: Cytotoxicity against human NCI-H322M cells assessed as growth inhibition at 10 uM after 48 hrs by SRB assay; assay type: functional
[27] = Cytotoxicity against human COLO205 cells assessed as growth inhibition at 10 uM after 48 hrs by SRB assay; assay type: functional; details: COLO 205, 48 h, read-out: GI
[28] = test system: HT-29; assay: Cytotoxicity against human HT-29 cells assessed as growth inhibition at 10 uM after 48 hrs by SRB assay; assay type: functional; details: HT-29, 48 h, read-out: GI
[29] = Cytotoxicity against human SF295 cells assessed as growth inhibition at 10 uM after 48 hrs by SRB assay; assay type: functional; details: SF-295, 48 h, read-out: GI
[30] = Cytotoxicity against human SNB75 cells assessed as growth inhibition at 10 uM after 48 hrs by SRB assay; assay type: functional; details: SNB-75, 48 h, read-out: GI
[31] = Cytotoxicity against human LOXIMVI cells assessed as growth inhibition at 10 uM after 48 hrs by SRB assay; assay type: functional; details: LOX IMVI, read-out: GI
[32] = test system: MDA-MB-435; assay: Cytotoxicity against human MDA-MB-435 cells assessed as growth inhibition at 10 uM after 48 hrs by SRB assay; assay type: functional; details: MDA-MB-435, 48 h, read-out: GI
[33] = Cytotoxicity against human UACC62 cells assessed as growth inhibition at 10 uM after 48 hrs by SRB assay; assay type: functional; details: UACC-62, 48 h, read-out: GI
[34] = Cytotoxicity against human OVCAR4 cells assessed as growth inhibition at 10 uM after 48 hrs by SRB assay; assay type: functional; details: OVCAR-4, 48 h, read-out: GI
[35] = test system: 786-0; assay: Cytotoxicity against human 786-0 cells assessed as growth inhibition at 10 uM after 48 hrs by SRB assay; assay type: functional; details: 786-0, 48 h, read-out: GI
[36] = Cytotoxicity against human Caki1 cells assessed as growth inhibition at 10 uM after 48 hrs by SRB assay; assay type: functional; details: CAKI-1, 48 h, read-out: GI
[37] = Cytotoxicity against human TK10 cells assessed as growth inhibition at 10 uM after 48 hrs by SRB assay; assay type: functional; details: TK-10, 48 h, read-out: GI
[38] = Cytotoxicity against human PC3 cells assessed as growth inhibition at 10 uM after 48 hrs by SRB assay; assay type: functional; details: PC-3, 48 h, read-out: GI
[39] = test system: MCF7; assay: Cytotoxicity against human MCF7 cells assessed as growth inhibition at 10 uM after 48 hrs by SRB assay; assay type: functional; details: MCF7, 48 h, read-out: GI
[40] = test system: MDA-MB-231; assay: Cytotoxicity against human MDA-MB-231 cells assessed as growth inhibition at 10 uM after 48 hrs by SRB assay; assay type: functional; details: MDA-MB-231, 48 h, read-out: GI
[41] = test system: MDA-MB-468; assay: Cytotoxicity against human MDA-MB-468 cells assessed as growth inhibition at 10 uM after 48 hrs by SRB assay; assay type: functional; details: MDA-MB-468, 48 h, read-out: GI
[42] = test system: CCRF-CEM; assay: Cytotoxicity against human CCRF-CEM cells assessed as growth level at 10 uM after 48 hrs by SRB assay; assay type: functional
[43] = Cytotoxicity against human HL-60(TB) cells assessed as growth level at 10 uM after 48 hrs by SRB assay; assay type: functional

Compound: C=C1CC[C@@H]2[C@](C)(COC(C)=O)[C@H](OC(C)=O)CC[C@@]2(C)[C@@H]1C/C=C1/C(=O)OC[C@H]1OC(C)=O
- Activity [1]: 14.12%
- Activity [2]: 102.98%
- Activity [3]: 75.75%
- Activity [4]: -41.64%
- Activity [5]: 22.03%
- Activity [6]: -39.4%
- Activity [7]: -21.85%
- Activity [8]: 87.06%
- Activity [9]: 8.54%
- Activity [10]: -74.4%
- Activity [11]: 35.37%
- Activity [12]: 33.07%
- Activity [13]: 66.52%
- Activity [14]: 102.65%
- Activity [15]: 27.13%
- Activity [16]: 101.37%
- Activity [17]: -10.88%
- Activity [18]: 90.57%
- Activity [19]: 16.88%
- Activity [20]: 100.18%
- Activity [21]: 7.98%
- inhibition of growth at 10 µM [22]: 20.9%
- inhibition of growth at 10 µM [23]: 14.2%
- inhibition of growth at 10 µM [24]: 24.2%
- inhibition of growth at 10 µM [25]: 76.4%
- growth inhibition (GI) [26]: inactive
- inhibition of growth at 10 µM [27]: 78%
- inhibition of growth at 10 µM [28]: 39.4%
- inhibition of growth at 10 µM [29]: 4.98%
- inhibition of growth at 10 µM [30]: 55.1%
- inhibition of growth at 10 µM [31]: 74.4%
- inhibition of growth at 10 µM [32]: 66.9%
- inhibition of growth at 10 µM [33]: 70.3%
- inhibition of growth at 10 µM [34]: 33.5%
- inhibition of growth at 10 µM [35]: 10.9%
- inhibition of growth at 10 µM [36]: 18.5%
- inhibition of growth at 10 µM [37]: 83.1%
- inhibition of growth at 10 µM [38]: 11.5%
- inhibition of growth at 10 µM [39]: 77.1%
- inhibition of growth at 10 µM [40]: 4.16%
- inhibition of growth at 10 µM [41]: 92%
- Activity [42]: -11.4%
- Activity [43]: 79.11%
